# Results as given in US7166617B2, “Cyclic amide derivatives” (Mitsubishi Pharma Corporation, priority 2000, dated 2007).
# pKi: −log10 of the molar value. Counter-ions that a name gives are not always drawn.
# Target: T1, sigma 2 receptor (Rattus norvegicus, UniProt Q5U3Y7)
# T1 construct: A crude P2 membrane fraction was prepared from livers of male rats (Sprague-Dawley rats); from tissue; host or cells: rat liver (male Sprague-Dawley), crude P2 membrane fraction
# T1 sequence (Q5U3Y7 1-176): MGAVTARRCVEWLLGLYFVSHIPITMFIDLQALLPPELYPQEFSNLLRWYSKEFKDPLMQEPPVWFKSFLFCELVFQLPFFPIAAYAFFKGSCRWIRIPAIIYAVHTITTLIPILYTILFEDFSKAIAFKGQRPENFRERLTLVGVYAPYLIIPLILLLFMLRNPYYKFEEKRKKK
# Test: Sigma 2-selective receptor binding inhibition test ([3H]-DTG, rat liver P2 membrane fraction)
# Conditions: [3H]-DTG 1 nM, 500 nM pentazocine, P2 fraction of livers of male Sprague-Dawley rats, 25° C., 2 hours
# Protocol: Sigma Binding Site-Binding Inhibition Test
# A crude P2 membrane fraction was prepared from livers of male rats (Sprague-Dawley rats) according to a method described in the literature (X. He, et al., J. Med. Chem., 36, pp. 566–571, 1993). In the presence of 500 nM pentazocine and a control compound at various concentrations (haloperidol, 10^−10 to 10^−6 M) or a test ligand at various concentrations (10^−10 to 10^−5 M) together with a radioactive ligand, the P2 fraction (0.4 ml) was incubated in 50 mM Tris-HCl (pH 7.4, final volume: 0.5 ml) at 25° C. for 2 hours. The reaction mixture was rapidly filtered on a Brandel cell harvester using Whatman GF/B filter paper, which was immersed beforehand in 0.5% polyethyleneimine for 1 hour, to stop the reaction. The filter paper was washed 4 times with the ice cooled incubation buffer. The non-specific results were evaluated by using 1 μM haloperidol, and the scintillation analysis and the curve analysis were performed as described above.
row,Compound,pKi
1,"COc1ccc2c(c1)CN(CC1CCN(CC(=O)c3ccc(F)cc3)CC1)C2=O [Example 9, 5-Methyloxy-2-[[1-[2-(4-fluorophenyl)-2-oxoethyl]piperidin-4-yl]methyl]isoindolin-1-one hydrochloride]",8.31
2,"COc1ccccc1CCN1CCC(CN2Cc3ccccc3C2=O)CC1 [Example 26, 2-[[1-[2-(2-Methoxyphenyl)ethyl]piperidin-4-yl]methyl]isoindolin-1-one hydrochloride]",8.00
3,"O=C1c2ccccc2CN1CC1CCN(CCc2c[nH]c3ccccc23)CC1 [Example 36, 2-[[1-[2-(Indol-3-yl)ethyl]piperidin-4-yl]methyl]isoindolin-1-one ½.fumarate]",7.30
4,"O=C(CN1CCC(CN2Cc3c(F)cccc3C2=O)CC1)c1ccc(F)cc1 [Example 6, 4-Fluoro-2-[[1-[2-(4-fluorophenyl)-2-oxoethyl]piperidin-4-yl]methyl]isoindolin-1-one hydrochloride]",8.06
5,"O=C(CN1CCC(CN2Cc3ccsc3C2=O)CC1)c1ccc(F)cc1 [Example 22, 5-[[1-[2-(4-Fluorophenyl)-2-oxoethyl]piperidin-4-yl]methyl]-4,5-dihydro-6H-thieno[2,3-c]pyrrol-6-one hydrochloride]",7.66
6,"O=C1c2ccccc2CN1CC1CCN(CCOc2ccc(F)cc2)CC1 [Example 32, 2-[[1-[2-(4-Fluorophenyloxy)ethyl]piperidin-4-yl]methyl]isoindolin-1-one hydrochloride]",8.55
7,"O=C(CN1CCC(CN2Cc3cc(Br)ccc3C2=O)CC1)c1ccc(F)cc1 [Example 3, 5-Bromo-2-[[1-[2-(4-fluorophenyl)-2-oxoethyl]piperidin-4-yl]methyl]isoindolin-1-one hydrochloride]",8.15

# More lines, now with the values ahead:
row,pKi,Compound
1,8.47,"O=C(CN1CCC(CN2Cc3ccccc3C2=O)CC1)C1CCCCC1 [Example 84, 2-[[1-(2-Cyclohexyl-2-oxoethyl)piperidin-4-yl]methyl]isoindolin-1-one fumarate]"
2,7.85,"O=C(CN1CCC(CN2Cc3ccccc3C2=O)CC1)N1CCCCC1 [Example 50, 2-[[1-[2-Oxo-2-(piperidin-1-yl)ethyl]piperidin-4-yl]methyl]isoindolin-1-one fumarate]"

# Same assay, conditions: test compound 10 nM; [3H]-DTG 1 nM, 500 nM pentazocine, rat liver P2 fraction
row,Compound,"Inhibitory rate against sigma 2 (%, 10 nM)"
1,COc1ccccc1SCCN1CCC(CN2Cc3ccccc3C2=O)CC1.O=C(O)/C=C/C(=O)O [Example 110],68%
2,"Cl.O=C(CN1CCC(CN2Cc3ccccc3C2=O)CC1)c1cccn1-c1ccccc1 [Example 95, 2-[[1-[2-[2-(1-Phenyl)pyrrolyl]-2-oxoethyl]piperidin-4-yl]methyl]-isoindolin-1-one hydrochloride]",69%

# Same assay, conditions: test compound 10 nM; [3H]-DTG 1 nM, 500 nM pentazocine, rat liver P2 fraction; read-out: Inhibitory rate against sigma 2 (%, 10 nM)
row,Compound,inhibition at 0.01 µM
1,"O=C1c2ccccc2CN1CC1CCN(CCc2ccccc2C(F)(F)F)CC1 [Example 96, 2-[[1-[2-(2-Trifluoromethylphenyl)ethyl]piperidin-4-yl]methyl]-isoindolin-1-one fumarate]",66%
2,"O=C(CN1CCC(CN2Cc3ccccc3C2=O)CC1)C1CCCCC1 [Example 84, 2-[[1-(2-Cyclohexyl-2-oxoethyl)piperidin-4-yl]methyl]isoindolin-1-one fumarate]",58%
3,"O=C1c2ccccc2CN1CC1CCN(CC(=O)N2CCc3ccccc32)CC1 [Example 51, 2-[[1-[2-(Indolin-1-yl)-2-oxoethyl]piperidin-4-yl]methyl]isoindolin-1-one fumarate]",74%
4,"O=C(CN1CCC(CN2Cc3ccccc3C2=O)CC1)N1CCCCC1 [Example 50, 2-[[1-[2-Oxo-2-(piperidin-1-yl)ethyl]piperidin-4-yl]methyl]isoindolin-1-one fumarate]",52%
